Laboratory results as given in PubChem BioAssay (NCI).
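Step 1: Grow cells in 96-well plates. Step 2: Expose to compound for 48 hours at 5 concentrations. Step 3: Interpolate endpoints linearly; if unreached, use highest concentration. TGI denotes the concentration required for complete inhibition of growth.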 Where a SMILES comes first, the peptide text is derived from it. [ ]: non-standard residue; d: D form. The star is where a group is joined. AllylGly = C=CC[CH](N)C(=O)O; Boc = CC(C)(C)OC(=O)*; OtBu = CC(C)(C)O*

How the values were obtained:
Experiment in all cases: inhibition of tumour cell growth, NCI panel, 48 h
DU-145 prostate = test system: DU-145 prostate
OVCAR-5 ovarian = test system: OVCAR-5 ovarian
SW-620 colon = test system: SW-620 colon
786-0 renal = test system: 786-0 renal
CAKI-1 renal = test system: CAKI-1 renal
PC-3 prostate = test system: PC-3 prostate
A549 NSCLC = test system: A549 NSCLC
A498 renal = test system: A498 renal
HCT-15 colon = test system: HCT-15 colon
TK-10 renal = test system: TK-10 renal
HL-60(TB) leukemia = test system: HL-60(TB) leukemia

SMILES | TGI (DU-145 prostate) [µM] | TGI (OVCAR-5 ovarian) [µM] | TGI (SW-620 colon) [µM] | TGI (786-0 renal) [µM] | TGI (CAKI-1 renal) [µM] | TGI (PC-3 prostate) [µM] | TGI (A549 NSCLC) [µM] | TGI (A498 renal) [µM] | TGI (HCT-15 colon) [µM] | TGI (TK-10 renal) [µM] | TGI (HL-60(TB) leukemia) [µM]
CC(C)C1(C)N=C(C(F)(F)F)c2cc(C(=O)C(F)(F)F)c3ccccc3c2N1 (stereo unspecified) | 14.1 | 24.5 | > 51.6 | 15.8 | 9.74 | 6.75 | 23.5 | 28.7 | 14.1 | 15.5 | 23.3
CC(C)(C)N(Cc1ccc2c(c1)OCO2)C(=O)/C=C\S(=O)c1ccccc1 (stereo unspecified) | 10.2 | 25.1 | 17.5 | 6.07 | 15.1 | 9.71 | 18.4 | 21.4 | 13.2 | 17 | 7.6
COCC1OC(OC2C3=C(C(C)C)CCC3(C)/C=C3\C(CCC3(O)COC)C(C)C2O)C(O)C2OC3OC12OC3(C)C1CO1 (stereo unspecified) | > 100 | > 100 | > 100 | > 100 | 99.7 | > 100 | > 100 | > 100 | > 100 | > 100 | 54.1
CCOC(=O)CCC(NC(=O)c1ccc(Oc2nc3ccc(C(F)(F)F)cc3nc2-c2ccccc2)cc1)C(=O)OCC (stereo unspecified) | > 100 | > 100 | > 100 | 32.9 | 26.9 | > 100 | > 100 | > 31.6 | > 100 | > 100 | > 100
CCCc1cc(=O)oc2c3c(c4c(c12)OC(C)(C)C=C4)O[C@@H](C)[C@H](C)C3=O | 61.1 | 33.2 | 32.2 | 38.8 | 73.9 | 35.4 | 24.5 | 29.9 | 46.1 | 44.3 | 33.4
O=[N+]([O-])c1cccc2nc3ccccc3c(NCCc3cccc[n+]3[O-])c12 | < 0.0277 | 0.145 | 0.197 | 0.249 | 0.901 | 1.51 | < 0.0476 | 0.225 | 0.0639 | 0.225 | 0.277
COc1ccc(/C=C2\C[C@H]3[C@@H]4CCC5=C[C@@H](N6CCCC6)CC[C@]5(C)[C@H]4CC[C@]3(C)[C@H]2O)cc1 | 20.8 | 20.9 | – | 2.94 | 14.6 | 8.17 | 7.59 | 3.2 | 5.77 | 7.44 | 4.21
COC(=O)C1(Cc2ccc3c(c2)CCC3)Cc2ccc3c(c2C1O)CCC3 (stereo unspecified) | 46.4 | – | 30.2 | 28.6 | 29.4 | 32.3 | 37.3 | 25.1 | – | 54.8 | > 100
O=C1NC(Cc2c[nH]c3ccccc23)C(=O)N2C(C3CCCCC3)c3[nH]c4ccccc4c3C[C@@H]12 (stereo partly specified) | > 100 | 43 | 73.7 | 28.5 | 55.8 | 28.3 | > 100 | 37.5 | 35.9 | 37.6 | 42.9
COC(=O)C(O)P(=O)(OC)OC (stereo unspecified) | > 100 | > 100 | > 100 | > 100 | > 100 | > 100 | > 100 | > 100 | > 100 | – | > 100
Cc1ccc(-c2c(C#N)c(S)n(NS(=O)(=O)c3ccc(C)cc3)c(=O)c2C#N)cc1 | > 100 | 67 | 39.3 | > 100 | 74.3 | > 100 | > 100 | > 100 | 40.4 | 50.5 | > 100
Cc1ccc(S(=O)(=O)NN=C2CCCCCCCCCCC2)cc1 | > 100 | > 100 | > 100 | > 100 | > 100 | > 100 | > 100 | > 100 | > 100 | > 100 | > 100
CCOc1ccc(/C(O)=C/c2nc3ccccc3nc2/C=C(\O)c2ccc(OCC)cc2)cc1 | > 100 | > 100 | > 100 | > 100 | > 100 | > 100 | > 100 | > 100 | > 100 | > 100 | > 100
COc1cc(CCCOC(=O)/C=C/c2ccc(O)c(O)c2)cc(O)c1O | > 100 | > 100 | 35.9 | > 100 | > 100 | > 100 | > 100 | > 100 | > 100 | > 100 | 84.1
CN(C)c1ccc(/C=C(\C#N)C(N)=C(C#N)C#N)cc1 | > 100 | > 100 | > 100 | > 100 | > 100 | > 100 | > 100 | > 100 | > 100 | > 100 | > 100
O=C1CN2Cc3cc(N4CCOCC4)ccc3N=C2N1 | > 100 | > 100 | > 100 | – | > 100 | > 100 | – | > 100 | > 100 | > 100 | > 100
CC1(C2(C)OC(=O)c3ccccc32)OC(=O)c2ccccc21 (stereo unspecified) | > 100 | – | > 100 | > 100 | > 100 | > 100 | > 100 | > 100 | > 100 | > 100 | > 100
C=CCC(NC(=O)C(CC(=O)OC(C)(C)C)NC(=O)OC(C)(C)C)C(=O)OC (stereo unspecified) (Boc-Asp(OtBu)-[AllylGly]-OMe; configuration not given here) | > 100 | > 100 | > 100 | > 100 | > 100 | > 100 | > 100 | > 100 | > 100 | > 100 | 85.5
